Reference: US4401604A, “Process for preparing thiosulfenamide derivatives of N-phosphonomethylglycine triesters” (Monsanto Company, priority 1981, dated 1983)

How the values were obtained:
Type in all cases: in vivo
[1] = tested on: Lambsquarters; assay: Pre-emergent herbicidal activity; settings: Table III; 11.2 kg/h; 2 WAT
Outline: (§1)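 Emergence counts versus untreated controls, taken after approximately two weeks on a wet sand bench, give an index of average percent control per species. The active ingredient, at a known amount, is blended into the soil that covers seeds pressed onto compacted top soil; watering occurs through the pan bottoms.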

[2] = tested on: Velvetleaf; assay: Pre-emergent herbicidal activity; settings: Table III; 11.2 kg/h; 2 WAT
Outline: as §1

[3] = tested on: Cocklebur; assay: Pre-emergent herbicidal activity; settings: Table III; 11.2 kg/h; 2 WAT
Outline: as §1

[4] = tested on: Downy Brome; assay: Pre-emergent herbicidal activity; settings: Table III; 11.2 kg/h; 2 WAT
Outline: as §1

[5] = tested on: Yellow Nutsedge; assay: Pre-emergent herbicidal activity; settings: Table III; 11.2 kg/h; 2 WAT
Outline: as §1

[6] = tested on: Johnsongrass; assay: Pre-emergent herbicidal activity; settings: Table III; 11.2 kg/h; 2 WAT
Outline: as §1

[7] = tested on: Morningglory; assay: Pre-emergent herbicidal activity; settings: Table III; 11.2 kg/h; 2 WAT
Outline: as §1

[8] = tested on: Canada Thistle; assay: Pre-emergent herbicidal activity; settings: Table III; 11.2 kg/h; 2 WAT
Outline: as §1

[9] = tested on: Quackgrass; assay: Pre-emergent herbicidal activity; settings: Table III; 11.2 kg/h; 2 WAT
Outline: as §1

[10] = tested on: Barnyardgrass; assay: Pre-emergent herbicidal activity; settings: Table III; 11.2 kg/h; 2 WAT
Outline: as §1

[11] = tested on: Smartweed; assay: Pre-emergent herbicidal activity; settings: Table III; 11.2 kg/h; 2 WAT
Outline: as §1

[12] = tested on: Wild Buckwheat; assay: Post-emergence herbicidal activity, greenhouse; settings: Table II
Outline: (§2)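 2–3-week-old plants, post-emergence atomizer spray, ~0.4% emulsifier; candidate from 1.0% stock in acetone, THF or water. Greenhouse hold; injury vs control at ~2/4 WAT.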

[13] = tested on: Panicum Spp; assay: Post-emergence herbicidal activity, greenhouse; settings: Table II
Outline: as §2

[14] = tested on: Lambsquarters; assay: Post-emergence herbicidal activity, greenhouse
Outline: as §2

[15] = tested on: Crabgrass; assay: Post-emergence herbicidal activity, greenhouse; settings: Table II
Outline: as §2

[16] = tested on: Velvetleaf; assay: Post-emergence herbicidal activity, greenhouse
Outline: as §2

[17] = tested on: Rice; assay: Post-emergence herbicidal activity, greenhouse; settings: Table II
Outline: as §2

[18] = tested on: Hemp Sesbania; assay: Post-emergence herbicidal activity, greenhouse; settings: Table II
Outline: as §2

[19] = tested on: Cocklebur; assay: Post-emergence herbicidal activity, greenhouse
Outline: as §2

[20] = tested on: Sugar Beet; assay: Post-emergence herbicidal activity, greenhouse; settings: Table II
Outline: as §2

[21] = tested on: Wheat; assay: Post-emergence herbicidal activity, greenhouse; settings: Table II
Outline: as §2

[22] = tested on: Downy Brome; assay: Post-emergence herbicidal activity, greenhouse
Outline: as §2

[23] = tested on: Sorghum; assay: Post-emergence herbicidal activity, greenhouse; settings: Table II
Outline: as §2

[24] = tested on: Yellow Nutsedge; assay: Post-emergence herbicidal activity, greenhouse; settings: Table I, 4 WAT
Outline: as §2

[25] = tested on: Johnsongrass; assay: Post-emergence herbicidal activity, greenhouse; settings: Table I, 4 WAT
Outline: as §2

[26] = tested on: Morningglory; assay: Post-emergence herbicidal activity, greenhouse
Outline: as §2

[27] = tested on: Canada Thistle; assay: Post-emergence herbicidal activity, greenhouse; settings: Table I, 4 WAT
Outline: as §2

[28] = tested on: Soybean; assay: Post-emergence herbicidal activity, greenhouse; settings: Table II
Outline: as §2

[29] = tested on: Quackgrass; assay: Post-emergence herbicidal activity, greenhouse; settings: Table I, 4 WAT
Outline: as §2

[30] = tested on: Barnyardgrass; assay: Post-emergence herbicidal activity, greenhouse
Outline: as §2

[31] = tested on: Smartweed; assay: Post-emergence herbicidal activity, greenhouse
Outline: as §2

O=C(CN(CP(=O)(Oc1ccccc1)Oc1ccccc1)SSCCc1ccccc1)OCc1ccccc1 [IV, Glycine, N-[(diphenoxyphosphinyl)methyl]-N-[(2-phenylethyl)dithio]-, phenylmethyl ester]
pre-emergent herbicidal activity index [1]: 0 (0-24% control) | pre-emergent herbicidal activity index [2]: 0 (0-24% control) | pre-emergent herbicidal activity index [3]: 0 (0-24% control) | pre-emergent herbicidal activity index [4]: 0 (0-24% control) | pre-emergent herbicidal activity index [5]: 0 (0-24% control) | pre-emergent herbicidal activity index [6]: 0 (0-24% control) | pre-emergent herbicidal activity index [7]: 0 (0-24% control) | pre-emergent herbicidal activity index [8]: 3 (75-100% control) | pre-emergent herbicidal activity index [9]: 1 (25-49% control) | pre-emergent herbicidal activity index [10]: 0 (0-24% control) | pre-emergent herbicidal activity index [11]: 0 (0-24% control) | post-emergence herbicidal activity index ([12]; 0.28 kg/h, 2 WAT): 0 (0- 24% control) | post-emergence herbicidal activity index ([12]; 1.12 kg/h, 4 WAT): 0 (0- 24% control) | post-emergence herbicidal activity index ([12]; 5.6 kg/h, 4 WAT): 2 (50-74% control) | post-emergence herbicidal activity index ([13]; 0.28 kg/h, 2 WAT): 0 (0- 24% control) | post-emergence herbicidal activity index ([13]; 1.12 kg/h, 4 WAT): 0 (0- 24% control) | post-emergence herbicidal activity index ([13]; 5.6 kg/h, 4 WAT): 3 (75-99% control) | post-emergence herbicidal activity index ([14]; Table I, 5.6 kg/h, 4 WAT): 3 (75-99% control) | post-emergence herbicidal activity index ([14]; Table I, 11.2 kg/h, 4 WAT): 3 (75-99% control) | post-emergence herbicidal activity index ([14]; Table II, 0.28 kg/h, 2 WAT): 0 (0- 24% control) | post-emergence herbicidal activity index ([14]; Table II, 1.12 kg/h, 4 WAT): 3 (75-99% control) | post-emergence herbicidal activity index ([14]; Table II, 5.6 kg/h, 4 WAT): 3 (75-99% control) | post-emergence herbicidal activity index ([15]; 0.28 kg/h, 2 WAT): 0 (0- 24% control) | post-emergence herbicidal activity index ([15]; 1.12 kg/h, 4 WAT): 2 (50-74% control) | post-emergence herbicidal activity index ([15]; 5.6 kg/h, 4 WAT): 4 (100% control) | post-emergence herbicidal activity index ([16]; Table I, 5.6 kg/h, 4 WAT): 0 (0- 24% control) | post-emergence herbicidal activity index ([16]; Table I, 11.2 kg/h, 4 WAT): 1 (25-49% control) | post-emergence herbicidal activity index ([16]; Table II, 0.28 kg/h, 2 WAT): 0 (0- 24% control) | post-emergence herbicidal activity index ([16]; Table II, 1.12 kg/h, 4 WAT): 0 (0- 24% control) | post-emergence herbicidal activity index ([16]; Table II, 5.6 kg/h, 4 WAT): 2 (50-74% control) | post-emergence herbicidal activity index ([17]; 0.28 kg/h, 2 WAT): 0 (0- 24% control) | post-emergence herbicidal activity index ([17]; 1.12 kg/h, 4 WAT): 0 (0- 24% control) | post-emergence herbicidal activity index ([17]; 5.6 kg/h, 4 WAT): 1 (25-49% control) | post-emergence herbicidal activity index ([18]; 0.28 kg/h, 2 WAT): 0 (0- 24% control) | post-emergence herbicidal activity index ([18]; 1.12 kg/h, 4 WAT): 0 (0- 24% control) | post-emergence herbicidal activity index ([18]; 5.6 kg/h, 4 WAT): 1 (25-49% control) | post-emergence herbicidal activity index ([19]; Table I, 5.6 kg/h, 4 WAT): 1 (25-49% control) | post-emergence herbicidal activity index ([19]; Table I, 11.2 kg/h, 4 WAT): 3 (75-99% control) | post-emergence herbicidal activity index ([19]; Table II, 0.28 kg/h, 2 WAT): 0 (0- 24% control) | post-emergence herbicidal activity index ([19]; Table II, 1.12 kg/h, 4 WAT): 1 (25-49% control) | post-emergence herbicidal activity index ([19]; Table II, 5.6 kg/h, 4 WAT): 3 (75-99% control) | post-emergence herbicidal activity index ([20]; 0.28 kg/h, 2 WAT): 0 (0- 24% control) | post-emergence herbicidal activity index ([20]; 1.12 kg/h, 4 WAT): 3 (75-99% control) | post-emergence herbicidal activity index ([20]; 5.6 kg/h, 4 WAT): 4 (100% control) | post-emergence herbicidal activity index ([21]; 0.28 kg/h, 2 WAT): 0 (0- 24% control) | post-emergence herbicidal activity index ([21]; 1.12 kg/h, 4 WAT): 1 (25-49% control) | post-emergence herbicidal activity index ([21]; 5.6 kg/h, 4 WAT): 3 (75-99% control) | post-emergence herbicidal activity index ([22]; Table I, 5.6 kg/h, 4 WAT): 0 (0- 24% control) | post-emergence herbicidal activity index ([22]; Table I, 11.2 kg/h, 4 WAT): 1 (25-49% control) | post-emergence herbicidal activity index ([22]; Table II, 0.28 kg/h, 2 WAT): 0 (0- 24% control) | post-emergence herbicidal activity index ([22]; Table II, 1.12 kg/h, 4 WAT): 0 (0- 24% control) | post-emergence herbicidal activity index ([22]; Table II, 5.6 kg/h, 4 WAT): 3 (75-99% control) | post-emergence herbicidal activity index ([23]; 0.28 kg/h, 2 WAT): 0 (0- 24% control) | post-emergence herbicidal activity index ([23]; 1.12 kg/h, 4 WAT): 0 (0- 24% control) | post-emergence herbicidal activity index ([23]; 5.6 kg/h, 4 WAT): 2 (50-74% control) | post-emergence herbicidal activity index ([24]; 5.6 kg/h): 0 (0- 24% control) | post-emergence herbicidal activity index ([24]; 11.2 kg/h): 1 (25-49% control) | post-emergence herbicidal activity index ([25]; 5.6 kg/h): 2 (50-74% control) | post-emergence herbicidal activity index ([25]; 11.2 kg/h): 0 (0- 24% control) | post-emergence herbicidal activity index ([26]; Table I, 5.6 kg/h, 4 WAT): 2 (50-74% control) | post-emergence herbicidal activity index ([26]; Table I, 11.2 kg/h, 4 WAT): 2 (50-74% control) | post-emergence herbicidal activity index ([26]; Table II, 0.28 kg/h, 2 WAT): 0 (0- 24% control) | post-emergence herbicidal activity index ([26]; Table II, 1.12 kg/h, 4 WAT): 0 (0- 24% control) | post-emergence herbicidal activity index ([26]; Table II, 5.6 kg/h, 4 WAT): 2 (50-74% control) | post-emergence herbicidal activity index ([27]; 5.6 kg/h): 0 (0- 24% control) | post-emergence herbicidal activity index ([27]; 11.2 kg/h): 1 (25-49% control) | post-emergence herbicidal activity index ([28]; 0.28 kg/h, 2 WAT): 0 (0- 24% control) | post-emergence herbicidal activity index ([28]; 1.12 kg/h, 4 WAT): 0 (0- 24% control) | post-emergence herbicidal activity index ([28]; 5.6 kg/h, 4 WAT): 2 (50-74% control) | post-emergence herbicidal activity index ([29]; 5.6 kg/h): 2 (50-74% control) | post-emergence herbicidal activity index ([29]; 11.2 kg/h): 1 (25-49% control) | post-emergence herbicidal activity index ([30]; Table I, 5.6 kg/h, 4 WAT): 2 (50-74% control) | post-emergence herbicidal activity index ([30]; Table I, 11.2 kg/h, 4 WAT): 2 (50-74% control) | post-emergence herbicidal activity index ([30]; Table II, 0.28 kg/h, 2 WAT): 0 (0- 24% control) | post-emergence herbicidal activity index ([30]; Table II, 1.12 kg/h, 4 WAT): 0 (0- 24% control) | post-emergence herbicidal activity index ([30]; Table II, 5.6 kg/h, 4 WAT): 4 (100% control) | post-emergence herbicidal activity index ([31]; Table I, 5.6 kg/h, 4 WAT): 1 (25-49% control) | post-emergence herbicidal activity index ([31]; Table I, 11.2 kg/h, 4 WAT): 2 (50-74% control) | post-emergence herbicidal activity index ([31]; Table II, 0.28 kg/h, 2 WAT): 0 (0- 24% control) | post-emergence herbicidal activity index ([31]; Table II, 1.12 kg/h, 4 WAT): 1 (25-49% control) | post-emergence herbicidal activity index ([31]; Table II, 5.6 kg/h, 4 WAT): 2 (50-74% control)
